Source: paper PMC6154679, “Nine Different Chemical Species and Action Mechanisms of Pancreatic Lipase Ligands Screened Out from Forsythia suspensa Leaves All at One Time” (Molecules : A Journal of Synthetic Chemistry and Natural …, 2017)

Target: T1, pancreatic lipase (PL) (Sus scrofa, UniProt P00591)
T1 construct: gene PNLIP
T1 sequence (P00591 1-450): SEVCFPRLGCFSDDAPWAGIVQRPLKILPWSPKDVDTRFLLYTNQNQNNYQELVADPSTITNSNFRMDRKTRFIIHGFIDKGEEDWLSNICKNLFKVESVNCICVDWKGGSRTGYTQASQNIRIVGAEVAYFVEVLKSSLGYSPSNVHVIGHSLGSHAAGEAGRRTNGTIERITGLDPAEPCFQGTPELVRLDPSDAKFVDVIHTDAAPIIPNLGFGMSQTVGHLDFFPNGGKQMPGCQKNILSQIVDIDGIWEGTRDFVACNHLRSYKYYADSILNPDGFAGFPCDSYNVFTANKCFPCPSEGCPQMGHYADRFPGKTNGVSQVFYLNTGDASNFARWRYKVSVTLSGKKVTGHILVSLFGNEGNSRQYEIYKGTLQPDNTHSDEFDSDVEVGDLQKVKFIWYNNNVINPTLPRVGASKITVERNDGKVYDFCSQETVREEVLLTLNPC
Assay: pNPB hydrolysis assay, inhibition rate at […]
Type: biochemical
Details: read-out: % inhibition at 5 μg/mL

## CCCCCCCCCCC[C@@H](C[C@@H]1OC(=O)[C@H]1CCCCCC)OC(=O)[C@H](CC(C)C)NC=O [Orlistat]
  inhibition at 5 µg/mL: 58%
